Where “and” joins values, the source holds several entries; their conditions need not be identical. Equal values may be shown once. Inconclusive results and toxic doses are left out. The calls were made as follows: active = survival T/C of 150% or more; inactive = T/C below 125% in these data.
Tested on: BDF1 mice, P388 leukemia ip, median survival T/C
Assay: NCI In Vivo Anticancer Drug Screen. Data for tumor model P388 Leukemia (intraperitoneal) in B6D2F1 (BDF1) mice
Settings: endpoint: median survival time, higher = longer survival
In short: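 In tumour-bearing mice, survival after compound treatment is set against the vehicle group and given as a quotient.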

Measured: T/C

O=C(C=C(C(F)(F)F)C(F)(F)F)c1cc(Cl)ccc1Cl
inactive: dose: 3.12 mg/kg/injection, schedule: Q01DX009 (ip), vehicle: saline with Tween-80 95 % of control | dose: 6.25 mg/kg/injection, schedule: Q01DX009 (ip), vehicle: saline with Tween-80 95 % of control | dose: 7.0 mg/kg/injection, schedule: Q04DX003 (ip), vehicle: saline with Tween-80 112 % of control | dose: 11.0 mg/kg/injection, schedule: Q04DX003 (ip), vehicle: saline with Tween-80 120 % of control | dose: 12.5 mg/kg/injection, schedule: Q01DX009 (ip), vehicle: saline with Tween-80 103 % of control and 108 % of control | dose: 12.5 mg/kg/injection, schedule: Q04DX003 (ip), vehicle: saline with Tween-80 115 % of control | dose: 16.5 mg/kg/injection, schedule: Q04DX003 (ip), vehicle: saline with Tween-80 120 % of control | dose: 25.0 mg/kg/injection, schedule: Q04DX003 (ip), vehicle: saline with Tween-80 113 % of control | dose: 37.5 mg/kg/injection, schedule: Q04DX003 (ip), vehicle: saline with Tween-80 121 % of control

CN(C(=N)N)c1ccc(C(=O)Oc2ccc([N+](=O)[O-])cc2)cc1
inactive: dose: 12.5 mg/kg/injection, schedule: Q01DX009 (ip), vehicle: water 100 % of control | dose: 18.75 mg/kg/injection, schedule: Q04DX003 (ip), vehicle: water 104 % of control | dose: 25.0 mg/kg/injection, schedule: Q01DX009 (ip), vehicle: water 100 % of control | dose: 37.5 mg/kg/injection, schedule: Q04DX003 (ip), vehicle: water 109 % of control | dose: 50.0 mg/kg/injection, schedule: Q01DX009 (ip), vehicle: water 108 % of control | dose: 75.0 mg/kg/injection, schedule: Q04DX003 (ip), vehicle: water 104 % of control and 117 % of control | dose: 100.0 mg/kg/injection, schedule: Q01DX009 (ip), vehicle: water 104 % of control | dose: 100.0 mg/kg/injection, schedule: Q04DX003 (ip), vehicle: water 99 % of control | dose: 150.0 mg/kg/injection, schedule: Q04DX003 (ip), vehicle: water 117 % of control | dose: 200.0 mg/kg/injection, schedule: Q04DX003 (ip), vehicle: water 89 % of control | dose: 400.0 mg/kg/injection, schedule: Q04DX003 (ip), vehicle: water 89 % of control

N=c1scc(CC(=O)O)n1N
inactive: dose: 50.0 mg/kg/injection, schedule: Q01DX009 (ip), vehicle: saline 92 % of control | dose: 100.0 mg/kg/injection, schedule: Q01DX009 (ip), vehicle: saline 108 % of control | dose: 200.0 mg/kg/injection, schedule: Q01DX009 (ip), vehicle: saline 92 % of control

CC(C)C1=CC2=CC[C@@H]3[C@](C)(CCC[C@@]3(C)C(=O)O)[C@H]2CC1
inactive: dose: 100.0 mg/kg/injection, schedule: Q01DX009 (ip), vehicle: saline with Tween-80 100 % of control | dose: 100.0 mg/kg/injection, schedule: Q04DX003 (ip), vehicle: saline with Tween-80 100 % of control | dose: 200.0 mg/kg/injection, schedule: Q01DX009 (ip), vehicle: saline with Tween-80 100 % of control | dose: 200.0 mg/kg/injection, schedule: Q04DX003 (ip), vehicle: saline with Tween-80 100 % of control | dose: 400.0 mg/kg/injection, schedule: Q01DX009 (ip), vehicle: saline with Tween-80 100 % of control | dose: 400.0 mg/kg/injection, schedule: Q04DX003 (ip), vehicle: saline with Tween-80 100 % of control

CCOC(=O)c1ccc(NCC(=N)N)cc1
inactive: dose: 37.5 mg/kg/injection, schedule: Q01DX001 (ip), vehicle: saline sonified 100 % of control | dose: 75.0 mg/kg/injection, schedule: Q01DX001 (ip), vehicle: saline sonified 100 % of control | dose: 150.0 mg/kg/injection, schedule: Q01DX001 (ip), vehicle: saline sonified 100 % of control
